Reference: patent US9815796B2 (Merck Sharp & Dohme Corp., priority 2013, dated 2017)
Like-named read-outs stand apart in the source and are kept apart here.

Columns and labels:
human PDE2A1 = human PDE2A1 (Homo sapiens (Human), UniProt O00408); experiment: IMAP FP PDE selectivity panel, human PDE2A1; type: biochemical
Procedure, shortened: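 IMAP FP format: substrate 50 nM FAM-cAMP plus 1000 nM cGMP, enzyme (insect-cell GST-tagged human PDE2A1) at ~20% conversion, 60 min reaction at room temperature. Apparent inhibition constants calculated from parallel/perpendicular fluorescence with KM 10,000 nM.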

Rhesus PDE2A3 = Rhesus PDE2A3 (Macaca mulatta, UniProt B3VTJ2); experiment: PDE2 fluorescence polarization (IMAP FP) inhibition assay, rhesus enzyme; type: biochemical, rhesus macaque
Rhesus PDE2A3, sequence (B3VTJ2 1-941): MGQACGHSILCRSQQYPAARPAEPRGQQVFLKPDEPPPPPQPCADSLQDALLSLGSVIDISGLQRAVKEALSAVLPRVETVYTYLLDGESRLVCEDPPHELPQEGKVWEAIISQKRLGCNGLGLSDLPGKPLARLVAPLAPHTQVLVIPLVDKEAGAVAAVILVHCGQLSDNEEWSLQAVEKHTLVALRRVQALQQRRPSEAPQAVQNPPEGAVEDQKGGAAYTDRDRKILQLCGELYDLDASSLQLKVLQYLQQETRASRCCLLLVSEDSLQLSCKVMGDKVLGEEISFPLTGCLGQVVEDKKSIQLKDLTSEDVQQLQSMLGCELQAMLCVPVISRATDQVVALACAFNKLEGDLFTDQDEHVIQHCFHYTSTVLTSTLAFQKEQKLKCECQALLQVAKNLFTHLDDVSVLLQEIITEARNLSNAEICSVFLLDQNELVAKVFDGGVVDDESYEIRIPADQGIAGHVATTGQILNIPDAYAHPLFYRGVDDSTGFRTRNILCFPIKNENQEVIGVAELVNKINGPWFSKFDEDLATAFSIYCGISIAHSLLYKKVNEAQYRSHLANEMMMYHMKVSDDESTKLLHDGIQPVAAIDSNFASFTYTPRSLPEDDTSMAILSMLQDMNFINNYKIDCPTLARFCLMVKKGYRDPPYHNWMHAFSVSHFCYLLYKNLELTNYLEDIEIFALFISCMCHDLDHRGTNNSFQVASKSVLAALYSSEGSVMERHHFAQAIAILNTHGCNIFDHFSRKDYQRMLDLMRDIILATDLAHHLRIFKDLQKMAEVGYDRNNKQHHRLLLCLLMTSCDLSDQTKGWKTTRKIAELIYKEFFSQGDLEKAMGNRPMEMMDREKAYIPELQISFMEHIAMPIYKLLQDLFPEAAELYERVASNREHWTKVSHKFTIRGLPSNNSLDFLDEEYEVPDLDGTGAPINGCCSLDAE
Procedure, shortened: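 IMAP FP (mP from parallel and perpendicular fluorescence against substrate-only control) was read ≥1 h after adding binding reagent. The preceding 60 min room-temperature reaction contained FAM-cAMP (50 nM) and cGMP (1 uM) in pH 7.2 Tris buffer with MgCl2 and DTT. Enzyme was supernatant of sonicated AD293 cells expressing rhesus PDE2A3; compounds were 3-fold titrated, DMSO 1% final.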

[1] = Human PDE2, Lab A, read-out: Human PDE2 Ki (nM) - Lab A
[2] = Rhesus PDE2, Lab A, read-out: Rhesus PDE2 Ki (nM) - Lab A
[3] = Human PDE2, Lab B, read-out: Human PDE2 Ki (nM) - Lab B
[4] = Rhesus PDE2, Lab B, read-out: Rhesus PDE2 Ki (nM) - Lab B

human PDE2A1, sequence (O00408 other isoform, or with tags, fused parts or gaps): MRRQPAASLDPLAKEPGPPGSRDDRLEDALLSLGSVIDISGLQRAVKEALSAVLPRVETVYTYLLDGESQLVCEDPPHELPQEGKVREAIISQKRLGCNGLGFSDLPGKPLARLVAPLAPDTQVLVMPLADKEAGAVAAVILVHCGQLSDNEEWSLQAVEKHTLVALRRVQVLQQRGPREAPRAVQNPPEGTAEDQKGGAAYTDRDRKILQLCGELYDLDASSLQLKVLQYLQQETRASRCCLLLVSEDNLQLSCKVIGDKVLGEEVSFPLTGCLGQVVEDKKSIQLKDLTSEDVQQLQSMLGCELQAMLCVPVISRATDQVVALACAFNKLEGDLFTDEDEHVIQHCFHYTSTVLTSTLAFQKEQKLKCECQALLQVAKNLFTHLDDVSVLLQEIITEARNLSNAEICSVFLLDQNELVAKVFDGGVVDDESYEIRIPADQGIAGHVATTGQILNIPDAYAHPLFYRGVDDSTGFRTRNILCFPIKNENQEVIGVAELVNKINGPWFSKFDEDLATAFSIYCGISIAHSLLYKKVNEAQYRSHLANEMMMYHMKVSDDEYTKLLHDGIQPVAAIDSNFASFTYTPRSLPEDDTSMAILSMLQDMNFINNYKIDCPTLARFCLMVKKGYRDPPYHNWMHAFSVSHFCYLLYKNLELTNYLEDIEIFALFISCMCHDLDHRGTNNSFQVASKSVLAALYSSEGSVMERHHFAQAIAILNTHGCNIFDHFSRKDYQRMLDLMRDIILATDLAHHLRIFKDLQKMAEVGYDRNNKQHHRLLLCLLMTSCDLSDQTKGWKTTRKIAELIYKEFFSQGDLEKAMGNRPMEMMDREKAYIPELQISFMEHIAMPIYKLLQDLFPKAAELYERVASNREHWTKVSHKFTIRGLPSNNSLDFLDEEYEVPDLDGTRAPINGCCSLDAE

Compound | Ki (human PDE2A1; [1]) [nM] | Ki (Rhesus PDE2A3; [2]) [nM] | Ki (human PDE2A1; [3]) [nM] | Ki (Rhesus PDE2A3; [4]) [nM]
O=C(NC1(c2ccc(OC(F)(F)F)c(F)c2)CC1)c1cc(=O)[nH]c(-c2ncccn2)n1 [Example 81, N-{1-[3-fluoro-4-(trifluoromethoxy)phenyl]cyclopropyl}-6-oxo-1,6-dihydro-2,2′-bipyrimidine-4-carboxamide] | – | 23 | 25 | 17
CC(NC(=O)c1cc(=O)[nH]c(-c2ccccc2)n1)c1ccc2c(c1)OCCO2 (centres unmarked) [Example 360, N-[1-(2,3-dihydro-1,4-benzodioxin-6-yl)ethyl]-6-oxo-2-phenyl-1,6-dihydropyrimidine-4-carboxamide] | – | 222 | ~488 | 459
C[C@@H](NC(=O)c1cc(=O)[nH]c(C2CC2)n1)c1ccc(OC(F)(F)F)c(F)c1 [Example 296, 2-cyclopropyl-N-{(1R)-1-[3-fluoro-4-(trifluoromethoxy)phenyl]ethyl}-6-oxo-1,6-dihydropyrimidine-4-carboxamide] | 3.1 | 6.3 | – | –
C[C@@H](NC(=O)c1cc(=O)[nH]c(-c2ncccn2)n1)c1ccc(C(F)(F)F)cc1F [Example 99, N-[(1R)-1-[2-fluoro-4-(trifluoromethyl)phenyl]ethyl}-6-oxo-1,6-dihydro-2,2′-bipyrimidine-4-carboxamide] | 24 | 58 | – | –
C[C@@H](NC(=O)c1cc(=O)[nH]c(C2CC2)n1)c1ccc2ccccc2c1 [Example 224, 2-cyclopropyl-N-[(1R)-1-naphthalen-2-ylethyl]-6-oxo-1,6-dihydropyrimidine-4-carboxamide] | 20 | 40 | – | –
C[C@@H](NC(=O)c1cc(=O)[nH]c(C2CC2)n1)c1ccc(-c2ccccc2)cc1 [Example 144, N-[(1R)-1-biphenyl-4-ylethyl]-2-cyclopropyl-6-oxo-1,6-dihydropyrimidine-4-carboxamide] | 6 | 16 | – | –
CC(C)(NC(=O)c1cc(=O)[nH]c(C2CC2)n1)c1ccc(SC(F)(F)F)c(F)c1 [Example 266, 2-cyclopropyl-N-(1-{3-fluoro-4-[(trifluoromethyl)sulfanyl]phenyl}-1-methylethyl)-6-oxo-1,6-dihydropyrimidine-4-carboxamide] | 65 | 86 | – | –
C[C@@H](NC(=O)c1cc(=O)[nH]c(-c2ccccc2)n1)c1ccc(C(F)(F)F)c(Cl)c1 [Example 190, N-{(1R)-1-[3-chloro-4-(trifluoromethyl)phenyl]ethyl}-6-oxo-2-phenyl-1,6-dihydropyrimidine-4-carboxamide] | 6.1 | 6.4 | – | –
CC(C)(NC(=O)c1cc(=O)[nH]c(-c2ccccc2)n1)c1ccc(C(F)(F)F)cc1 [Example 280, N-{1-methyl-1-[4-(trifluoromethyl)phenyl]ethyl}-6-oxo-2-phenyl-1,6-dihydropyrimidine-4-carboxamide] | 16 | 19 | – | –
COc1ccc(Cc2nc(C(=O)N[C@@H](c3ccc(S(F)(F)(F)(F)F)cc3)C3CC3)cc(=O)[nH]2)cc1F [Example 510, N-{(R)-cyclopropyl[4-(pentafluoro-λ^6-sulfanyl)phenyl]methyl}-2-(3-fluoro-4-methoxybenzyl)-6-oxo-1,6-dihydropyrimidine-4-carboxamide] | – | – | 2.8 | 3.3
O=C(NC(CCO)c1ccc(C(F)(F)F)cc1)c1cc(=O)[nH]c(-c2ccccc2)n1 (centres unmarked) [Example 421, N-{3-hydroxy-1-[4-(trifluoromethyl)phenyl]propyl}-6-oxo-2-phenyl-1,6-dihydropyrimidine-4-carboxamide] | – | – | 9.4 | 14
O=C(NC1(c2ccc(C(F)(F)F)c(F)c2)CC1)c1cc(=O)[nH]c(-c2ncccn2)n1 [Example 76, N-{1-[3-fluoro-4-(trifluoromethyl)phenyl]cyclopropyl}-6-oxo-1,6-dihydro-2,2′-bipyrimidine-4-carboxamide] | – | 17 | 21 | 18
O=C(NC1(c2ccc(C(F)(F)F)cc2)CCC1)c1cc(=O)[nH]c(C2CC2)n1 [Example 143, 2-cyclopropyl-6-oxo-N-{1-[4-(trifluoromethyl)phenyl]cyclobutyl}-1,6-dihydropyrimidine-4-carboxamide] | 11 | 21 | – | –
Cc1nc(C(=O)NC2(c3ccc(SC(F)(F)F)c(F)c3)CC2)cc(=O)[nH]1 [Example 261, N-(1-{3-fluoro-4-[(trifluoromethyl)sulfanyl]phenyl}cyclopropyl)-2-methyl-6-oxo-1,6-dihydropyrimidine-4-carboxamide] | – | 18 | 33 | 37
O=C(NC1(c2ccc(SC(F)(F)F)cc2)CC1)c1cc(=O)[nH]c(C2CC2)n1 [Example 199, 2-cyclopropyl-6-oxo-N-(1-{4-[(trifluoromethyl)sulfanyl]phenyl}cyclopropyl)-1,6-dihydropyrimidine-4-carboxamide] | 7 | 12 | – | –

Next, values leading:

Ki (human PDE2A1; [1]) [nM] | Ki (Rhesus PDE2A3; [2]) [nM] | Ki (human PDE2A1; [3]) [nM] | Ki (Rhesus PDE2A3; [4]) [nM] | Compound
11 | 25 | – | – | COc1cc(OC(F)(F)F)ccc1C(C)NC(=O)c1cc(=O)[nH]c(C2CC2)n1 (centres unmarked) [Example 230, 2-cyclopropyl-N-{1-[2-methoxy-4-(trifluoromethoxy)phenyl]ethyl}-6-oxo-1,6-dihydropyrimidine-4-carboxamide]
– | – | 4 | 4.2 | Cc1nc(C(=O)N[C@@H](c2ccc(C(F)(F)F)cc2F)C(C)(C)C)cc(=O)[nH]1 [Example 617]
– | – | 0.6 | 0.68 | COc1ccc(Cc2nc(C(=O)N[C@@H](c3ccc(C(F)(F)F)cc3)C(C)(C)C)cc(=O)[nH]2)cc1 [Example 455, N-{(1R)-2,2-dimethyl-1-[4-(trifluoromethyl)phenyl]propyl}-2-(4-methoxybenzyl)-6-oxo-1,6-dihydropyrimidine-4-carboxamide]
32 | 41 | – | – | Cc1nc(C(=O)N[C@H](C)c2ccc(C(F)(F)F)c(Cl)c2)cc(=O)[nH]1 [Example 47, N-{(1R)-1-[3-chloro-4-(trifluoromethyl)phenyl]ethyl}-2-methyl-6-oxo-1,6-dihydropyrimidine-4-carboxamide]
41 | 71 | 52 | – | Cc1nc(C(=O)NC(CO)c2ccc(C(F)(F)F)cc2)cc(=O)[nH]1 (single isomer, unassigned) [Example 312, (R)- or (S)-N-{2-hydroxy-1-[4-(trifluoromethyl)phenyl]ethyl}-2-methyl-6-oxo-1,6-dihydropyrimidine-4-carboxamide]
– | – | 3.7 | 3.7 | Cc1nc(C(=O)N[C@@H](c2ccc(C(C)C)cc2)C2(C)CC2)cc(=O)[nH]1 [Example 427, 2-methyl-N-{(R)-(1-methylcyclopropyl)[4-(1-methylethyl)phenyl]methyl}-6-oxo-1,6-dihydropyrimidine-4-carboxamide]
16 | 84 | – | – | COCc1nc(C(=O)N[C@H](C)c2ccc(OC(F)(F)F)cc2)cc(=O)[nH]1 [Example 113, 2-(methoxymethyl)-6-oxo-N-{(1R)-1-[4-(trifluoromethoxy)phenyl]ethyl}-1,6-dihydropyrimidine-4-carboxamide]
– | – | 1.5 | 1.9 | CC[C@@H](NC(=O)c1cc(=O)[nH]c(Cc2ccc(OC)cc2)n1)c1ccc(OC(F)(F)F)cc1 [Example 485, 2-(4-methoxybenzyl)-6-oxo-N-{(1R)-1-[4-(trifluoromethoxy)phenyl]propyl}-1,6-dihydropyrimidine-4-carboxamide]
917 | 1160 | – | – | Cc1nc(C(=O)NC(C)c2ccc(C(F)(F)F)cn2)cc(=O)[nH]1 (centres unmarked) [Example 17, 2-methyl-6-oxo-N-{1-[5-(trifluoromethyl)pyridin-2-yl]ethyl}-1,6-dihydropyrimidine-4-carboxamide]
43 | 63 | – | – | Cc1nc(C(=O)NC(C)c2ccc(C(C)(C)C)cc2)cc(=O)[nH]1 (single isomer, unassigned) [Example 309, (R)- or (S)-N-[1-(4-tert-butylphenyl)ethyl]-2-methyl-6-oxo-1,6-dihydropyrimidine-4-carboxamide]
– | – | 8.3 | 9.8 | Cc1nc(C(=O)N[C@@H](c2ccc(OC(F)F)cc2)C(C)(C)C)cc(=O)[nH]1 [Example 62, (R)-N-(1-(4-(difluoromethoxy)phenyl)-2,2-dimethylpropyl)-2-methyl-6-oxo-1,6-dihydropyrimidine-4-carboxamide]
– | – | 4.8 | 6.7 | CC(C)(C)[C@@H](NC(=O)c1cc(=O)[nH]c(-c2ncccn2)n1)c1ccc(C2CC2)c(F)c1 [Example 451, N-[(1R)-1-(4-cyclopropyl-3-fluorophenyl)-2,2-dimethylpropyl]-6-oxo-1,6-dihydro-2,2′-bipyrimidine-4-carboxamide]
– | – | 5.2 | 5.1 | Cc1nc(C(=O)N[C@@H](c2ccc(C3CC3)c(F)c2)C(C)C)cc(=O)[nH]1 [Example 621, N-[(1R)-1-(4-cyclopropyl-3-fluorophenyl)-2-methylpropyl]-2-methyl-6-oxo-1,6-dihydropyrimidine-4-carboxamide]
10 | 11 | – | – | C[C@@H](NC(=O)c1cc(=O)[nH]c(-c2ncccn2)n1)c1ccc(C(F)(F)F)cc1 [Example 291, 6-oxo-N-{(1R)-1-[4-(trifluoromethyl)phenyl]ethyl}-1,6-dihydro-2,2′-bipyrimidine-4-carboxamide]
– | – | 1.3 | 1.3 | COc1ccc(Cc2nc(C(=O)N[C@@H](c3ccc(OC(F)(F)F)cc3)C(C)C)cc(=O)[nH]2)cc1 [Example 475, 2-(4-methoxybenzyl)-N-{(1R)-2-methyl-1-[4-(trifluoromethoxy)phenyl]propyl}-6-oxo-1,6-dihydropyrimidine-4-carboxamide]
